From US11857601B2, “Pharmaceutical composition for cancer treatment comprising fusion protein including IL-2 protein and CD80 protein and anticancer drug” (GI INNOVATION, INC., priority 2020, dated 2024)

Assays:
[1] = target: T1, IL-2Rα (Homo sapiens, UniProt P01589); test: Binding to IL-2Rα (Octet, AR2G biosensor); settings: as compared with GI101w and Proleukin
T1 construct: purchased Acro ILA-H52H9
T1 sequence (P01589 22-272): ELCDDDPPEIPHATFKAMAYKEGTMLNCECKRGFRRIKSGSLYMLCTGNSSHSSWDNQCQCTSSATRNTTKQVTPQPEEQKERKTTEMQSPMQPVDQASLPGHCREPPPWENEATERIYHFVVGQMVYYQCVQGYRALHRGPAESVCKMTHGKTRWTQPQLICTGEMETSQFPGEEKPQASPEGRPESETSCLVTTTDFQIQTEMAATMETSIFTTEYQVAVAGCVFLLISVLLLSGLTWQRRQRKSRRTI
Protocol: The binding ability for IL-2Rα was measured using the AR2G biosensor, and the binding ability for IL-2Rβ was measured using the Ni-NTA biosensors (Nickel charged Tris-NTA, Ni-NTA Biosensors, ForteBio, 18-5101).
A ligand (IL-2Rα-His Tag, Acro, Cat: ILA-H52H9) to be attached to the AR2G biosensor was diluted with 10 mM acetate buffer (pH 5, AR2G reagent Kit, ForteBio, Cat: 18-5095) to a concentration of 5 μg/ml. The AR2G biosensor was activated with a buffer prepared by mixing 400 mM EDC and 100 mM sulfo-NHS, and then the diluted ligand was loaded on the AR2G biosensor for 300 seconds and fixed.
Thereafter, GI101, GI101w, or Proleukin (Novartis, hIL-2), at various concentrations, to be attached to the ligand was loaded thereon for 300 seconds. Then, binding thereof was measured and dissociation thereof was also measured for 300 seconds. Binding kinetics analysis was performed using Octet Data Analysis HT software ver. 10 provided by Pall Corporation. The results are illustrated in FIGS. 22 to 24.

[2] = system: human PBMCs; test: IFN-γ production in PHA-treated CFSE-labeled PBMCs (ELISA); type: cell-based; settings: PBMCs + PHA 5 μg/ml; 1, 10 or 100 nM; 6 days; compared with GI101C1, GI101C2 or IL-2
Protocol: Peripheral blood mononuclear cells (PBMCs) isolated from a human were labeled with carboxyfluorescein succinimidyl ester (CFSE) by being reacted with 1 μM CellTrace CFSE dye at 37° C. for 20 minutes. CFSE not bound to the cells was removed by being reacted for 5 minutes with a culture medium having a 5-fold volume of the staining reaction solution and then by being centrifuged at 1,300 rpm for 5 minutes. […]
The cells were analyzed by FACS, and human IFN-γ present in the culture medium was measured using an ELISA kit (Biolegend, San Diego, CA, USA, cat No. 430103).
The amount of human IFN-γ secreted into the supernatant of each sample in which the cells had been cultured was measured using a human IFN-γ ELISA kit (Biolegend, cat No. 430103). […]
After the reaction was completed, the plate was washed and secondary antibodies (detection antibodies) were added thereto. […] Finally, […] was added thereto to stop the color development reaction, and the absorbance at 450 nm was measured with Epoch Microplate Spectrophotometer (BioTek instruments, Winooski, VT, USA), and the concentration was calculated.

[3] = system: immune cells in cancer tissues; test: Immune cell analysis in CT-26 cancer tissue (FACS); type: in vivo, BALB/c mice
Text: The mice of each group in Experimental Example 16.1 were sacrificed when the tumor volume reached an average of 200 mm^3, and cancer tissues were collected.

[4] = system: 4T1 cells; test: mGI-101 and Abemaciclib in 4T1 allotransplanted tumor model; type: in vivo, BALB/c mice; settings: 11 mice per group
Protocol: 4T1 cells were purchased from ATCC (USA) and cultured in RPMI1640 medium (Gibco) containing 10% FBS (Gibco) and 1% antibiotic/antifungal agent (Gibco). The cultured cells were harvested using trypsin (Gibco) and then suspended in PBS. In order to establish an allotransplanted tumor model, 1×10^5 of 4T1 cells were subcutaneously injected into the back of BALB/c female mice (8-week-old).
A certain period of time after cell inoculation of the tumor grafts of the mice, the tumor volume was measured for animals with no abnormalities in the health condition of the animals, and the mice were randomly selected and assigned, each group including 11 mice.
The death of the mouse, the type of general symptoms, the date of onset, and the severity of symptoms were observed once a day during the test period, and recorded for each subject.
The tumor volume before administration of each subject was set as the value measured at the time of grouping, and the anti-tumor efficacy was evaluated as compared with the vehicle control.
All statistical calculations were performed using Prism 8.0 (Graph Pad Software Inc, USA). The comparison of tumor volume measurements was made through two-way analysis of variance followed by Tukey's multiple comparison test. A p value of less than 0.05 was considered significant.

binding ability for the IL-2 receptor IL-2Rα [1] | Substance | IFN-γ secretion [2] | CD8+ T cells in cancer tissue ([3]; 0.1 mg/kg, compared with anti-PD-1 antibody alone 5 mg/kg) | M1 macrophages ([3]; 0.1 mg/kg, vs negative control and anti-PD-1 antibody alone) | level of CD86 expression in macrophages and dendritic cells ([3]; all GI101 groups) | level of expression of IFN-γ in T cells ([3]; all GI101 groups, vs negative control) | number of mice with tumor growth inhibition rate of 30% or more [4] [mice] | number of mice with tumor growth inhibition rate of 50% or more [4] [mice] | number of mice with tumor growth inhibition rate of 80% or more [4]
low binding ability | GI101: fusion protein: human CD80 fragment, Ig hinge, Fc domain, linker, IL-2 variant (2M) (R38A, F42A); SEQ ID NO: 9 | remarkable increase | significant increase | increase | increased level | significantly increased level | – | – | –
– | mGI101: fusion protein: mouse CD80, Ig hinge, Fc domain, linker, IL-2 variant (2M) (R38A, F42A); SEQ ID NO: 15 | – | – | – | – | – | 3 | 1 | no mouse
